Assay results from US9938269B2, “Inhibitor compounds of phosphodiesterase type 10A” (ABBVIE INC., priority 2011, dated 2018).
Where a name gives a salt, the structure may show the parent alone.

target: T1, PDE10A (human) (Homo sapiens, UniProt Q9Y233); assay: Measurement of PDE activity (HTRF cAMP kit), human PDE10A; format: biochemical; conditions: PDE enzymatic reaction, substrate 20 nM for PDE10, 60 minutes at 29 C
T1 construct: purchased BPS Bioscience
Procedure: The recombinant PDE proteins are used in in vitro enzymatic reaction for measurement of PDE activity. These recombinant proteins, including PDE10A (human, rat and mouse PDE10) and isoforms of PDEs 1, 3, 4, and 5, were purchased from commercial vendor BPS Bioscience. The enzymatic activity of PDEs was determined by cAMP measurement kit from CisBio (IBA) using HTRF technology.
The PDE enzymatic reaction was carried out in assay buffer (20 mM Tris-HCl pH7.5, 10 mM MgCl2, 0.1% bovine serum albumin) containing enzyme and substrate. The PDE enzymes concentration ranged from 10 pM-250 pM, depending on each enzyme's specific activity. The substrate cyclic nucleotide (cAMP or cGMP) concentration used in the assay was 20 nM for PDE10, and 100 nM for other PDEs. The inhibitory effect of compound was determined by incubating various concentration of inhibitor in the enzymatic assay. Typically, compound was serial diluted in DMSO then further diluted in assay buffer. Next, the compound at varying concentration was mixed with PDE enzyme. The reaction was initiated by addition of cyclic nucleotide substrate, and incubated for 60 minutes at 29 C. The reaction was stopped by addition of lysis buffer from assay kit. The cAMP-d2 and anti-cAMP cryptate in the lysis buffer detected the level of cAMP left from the PDE hydrolysis reaction. The PDE activity is reversely correlated with the amount of cAMP left in the reaction and can be converted to the percent activity of an uninhibited control (100%). Thus, IC50 value of inhibitor can be obtained by plotting inhibitor concentration against PDE activity at that concentration.

T1 sequence (Q9Y233 whole entry): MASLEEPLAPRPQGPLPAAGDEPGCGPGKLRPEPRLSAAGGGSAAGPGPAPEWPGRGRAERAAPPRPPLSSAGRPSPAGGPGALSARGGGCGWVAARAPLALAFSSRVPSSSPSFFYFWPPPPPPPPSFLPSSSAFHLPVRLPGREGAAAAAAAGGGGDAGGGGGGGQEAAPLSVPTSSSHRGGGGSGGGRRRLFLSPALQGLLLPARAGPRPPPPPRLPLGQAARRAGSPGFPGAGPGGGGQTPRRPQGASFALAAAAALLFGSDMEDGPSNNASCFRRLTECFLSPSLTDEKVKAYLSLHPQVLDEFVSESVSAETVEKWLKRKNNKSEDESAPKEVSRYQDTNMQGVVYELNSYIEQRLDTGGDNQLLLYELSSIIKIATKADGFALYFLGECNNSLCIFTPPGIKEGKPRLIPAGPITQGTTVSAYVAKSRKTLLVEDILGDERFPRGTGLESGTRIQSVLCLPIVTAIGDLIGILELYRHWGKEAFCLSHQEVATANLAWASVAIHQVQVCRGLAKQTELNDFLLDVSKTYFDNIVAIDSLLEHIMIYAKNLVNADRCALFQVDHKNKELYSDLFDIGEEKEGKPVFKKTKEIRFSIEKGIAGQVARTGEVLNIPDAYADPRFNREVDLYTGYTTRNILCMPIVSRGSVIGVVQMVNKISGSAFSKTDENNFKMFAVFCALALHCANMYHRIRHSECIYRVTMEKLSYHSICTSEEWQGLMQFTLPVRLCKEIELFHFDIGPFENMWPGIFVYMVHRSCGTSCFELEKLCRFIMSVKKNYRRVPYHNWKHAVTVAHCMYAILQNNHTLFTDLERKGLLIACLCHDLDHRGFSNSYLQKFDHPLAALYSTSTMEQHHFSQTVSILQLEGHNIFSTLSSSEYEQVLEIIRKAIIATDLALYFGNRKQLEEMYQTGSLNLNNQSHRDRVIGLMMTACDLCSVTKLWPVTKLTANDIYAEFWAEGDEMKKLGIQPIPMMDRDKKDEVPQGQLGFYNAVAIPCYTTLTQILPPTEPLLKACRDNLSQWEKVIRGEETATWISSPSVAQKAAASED

| SMILES | IC50 [nM] |
| --- | --- |
| O=C1c2c(N3CC4COCC4C3)ccnc2CN1CCc1ccc2ccccc2n1 (centres unmarked) [Example 260, 6-(2-Quinolin-2-yl-ethyl)-4-(tetrahydro-furo[3,4-c]pyrrol-5-yl)-6,7-dihydro-pyrrolo[3,4-b]pyridin-5-one] | < 100 |
| O=C1c2c(C3=COCC3)ccnc2CN1CCc1ccc2ccccc2n1 [Example 266, 4-(4,5-Dihydro-furan-3-yl)-6-(2-quinolin-2-yl-ethyl)-6,7-dihydro-pyrrolo[3,4-b]pyridin-5-one] | < 100 |
| CSCOc1ccc(-c2ccncc2)c2c1CN(CCc1ccc3ccccc3n1)C2=O [Example 267, 4-Methylsulfanylmethoxy-7-pyridin-4-yl-2-(2-quinolin-2-yl-ethyl)-2,3-dihydro-isoindol-1-one] | < 100 |
| O=C1c2c(-c3ccncc3)ccc(OC(F)F)c2CN1CCc1ccc2ccccc2n1 [Example 268, 4-Difluoromethoxy-7-pyridin-4-yl-2-(2-quinolin-2-yl-ethyl)-2,3-dihydro-isoindol-1-one] | < 100 |
| O=C1c2cccc(-c3cccnc3)c2C(=O)N1CCc1ccc2ccccc2n1 [Example 271, 4-Pyridin-3-yl-2-(2-quinolin-2-yl-ethyl)-isoindole-1,3-dione] | < 100 |
| CNCOc1ccc(-c2ccncc2)c2c1CN(CCc1ccc3ccccc3n1)C2=O [Example 276, 4-Methylaminomethoxy-7-pyridin-4-yl-2-(2-quinolin-2-yl-ethyl)-2,3-dihydro-isoindol-1-one] | < 100 |
| O=C1c2c(cccc2N2CCCC3NCCCC32)CN1CCc1ccc2ccccc2n1 (centres unmarked) [Example 279, 7-(Octahydro-[1,5]naphthyridin-1-yl)-2-(2-quinolin-2-yl-ethyl)-2,3-dihydro-isoindol-1-one trifluoroacetate] | 200 to 500 |
| N#Cc1ccc(-c2cccc3c2C(=O)N(CCc2ccc4ccccc4n2)C3)s1 [Example 281, 5-[3-oxo-2-(2-quinolin-2-yl-ethyl)-2,3-dihydro-1H-isoindol-4-yl]-thiophene-2-carbonitrile] | < 100 |
| O=C1c2c(cccc2-c2ccncc2)CN1CCc1nc2ccccc2n1CCN1CCOCC1 [Example 292, 2-{2-[1-(2-Morpholin-4-yl-ethyl)-1H-benzoimidazol-2-yl]-ethyl}-7-pyridin-4-yl-2,3-dihydro-isoindol-1-one trifluoroacetate] | < 100 |
| CN(C)CCn1c(CCN2Cc3cccc(-c4ccncc4)c3C2=O)nc2ccccc21 [Example 293, 2-{2-[1-(2-Dimethylamino-ethyl)-1H-benzoimidazol-2-yl]-ethyl}-7-pyridin-4-yl-2,3-dihydro-isoindol-1-one trifluoroacetate] | < 100 |
| O=C1c2c(-c3ccncc3)ccc(OCF)c2CN1CCc1ccc2ccccc2n1 [Example 299, 4-Fluoromethoxy-7-pyridin-4-yl-2-(2-quinolin-2-yl-ethyl)-2,3-dihydro-isoindol-1-one] | < 100 |
| Cc1ccc2c(c1)nc(CCN1Cc3cccc(-c4ccncc4)c3C1=O)n2C [Example 301, 2-[2-(1,5-Dimethyl-1H-benzoimidazol-2-yl)-ethyl]-7-pyridin-4-yl-2,3-dihydro-isoindol-1-one trifluoroacetate] | < 100 |
| CCCn1c(CCN2Cc3cccc(-c4ccncc4)c3C2=O)nc2ccccc21 [Example 302, 2-[2-(1-Propyl-1H-benzoimidazol-2-yl)-ethyl]-7-pyridin-4-yl-2,3-dihydro-isoindol-1-one trifluoroacetate] | < 100 |
| CC(C)n1c(CCN2Cc3cccc(-c4ccncc4)c3C2=O)nc2ccccc21 [Example 303, 2-[2-(1-Isopropyl-1H-benzoimidazol-2-yl)-ethyl]-7-pyridin-4-yl-2,3-dihydro-isoindol-1-one trifluoroacetate] | 100 to 200 |
| CC(C)n1c(CCN2Cc3cccc(N4CCOCC4)c3C2=O)nc2ccccc21 [Example 304, 2-[2-(1-Isopropyl-1H-benzoimidazol-2-yl)-ethyl]-7-morpholin-4-yl-2,3-dihydro-isoindol-1-one trifluoroacetate] | 100 to 200 |
| CCCn1c(CCN2Cc3cccc(N4CCOCC4)c3C2=O)nc2ccccc21 [Example 305, 7-Morpholin-4-yl-2-[2-(1-propyl-1H-benzoimidazol-2-yl)-ethyl]-2,3-dihydro-isoindol-1-one trifluoroacetate] | 200 to 500 |
| Cn1c(CCN2Cc3cccc(N4CCOCC4)c3C2=O)nc2c(F)cccc21 [Example 307, 2-[2-(4-Fluoro-1-methyl-1H-benzoimidazol-2-yl)-ethyl]-7-morpholin-4-yl-2,3-dihydro-isoindol-1-one trifluoroacetate] | 200 to 500 |
| O=C1c2c(C3CCOC3)ccnc2CN1CCc1ccc2ccccc2n1 (centres unmarked) [Example 309, 6-(2-Quinolin-2-yl-ethyl)-4-(tetrahydro-furan-3-yl)-6,7-dihydro-pyrrolo[3,4-b]pyridin-5-one] | < 100 |

| SMILES | IC50 [nM] |
| --- | --- |
| CCOC(=O)C1CCN(c2ccnc3c2C(=O)N(CCc2ccc4ccccc4n2)C3)CC1 [Example 319, 1-[5-Oxo-6-(2-quinolin-2-yl-ethyl)-6,7-dihydro-5H-pyrrolo[3,4-b]pyridin-4-yl]-piperidine-4-carboxylic acid ethyl ester] | 200 to 500 |
| CN1CCN(S(=O)(=O)c2cccc3c2CN(c2cccc4c2CN(CCc2ccc5ccccc5n2)C4=O)CC3)CC1 [Example 321, 4-[8-(4-Methyl-piperazine-1-sulfonyl)-3,4-dihydro-1H-isoquinolin-2-yl]-2-(2-quinolin-2-yl-ethyl)-2,3-dihydro-isoindol-1-one] | 200 to 500 |
| Cc1cnccc1-c1ccnc2c1C(=O)N(CCc1ccc3ccccc3n1)C2 [Example 322, 4-(3-Methyl-pyridin-4-yl)-6-(2-quinolin-2-yl-ethyl)-6,7-dihydro-pyrrolo[3,4-b]pyridin-5-one] | < 100 |
| O=C1c2c(-c3cc[nH]n3)ccnc2CN1CCc1ccc2ccccc2n1 [Example 323, 4-(1H-Pyrazol-3-yl)-6-(2-quinolin-2-yl-ethyl)-6,7-dihydro-pyrrolo[3,4-b]pyridin-5-one] | < 100 |
| O=C1c2c(-c3ccsc3)ccnc2CN1CCc1ccc2ccccc2n1 [Example 330, 6-(2-Quinolin-2-yl-ethyl)-4-thiophen-3-yl-6,7-dihydro-pyrrolo[3,4-b]pyridin-5-one] | < 100 |
| O=C1c2c(-c3ccoc3)ccnc2CN1CCc1ccc2ccccc2n1 [Example 331, 4-Furan-3-yl-6-(2-quinolin-2-yl-ethyl)-6,7-dihydro-pyrrolo[3,4-b]pyridin-5-one] | < 100 |
| CCn1cc(-c2ccnc3c2C(=O)N(CCc2ccc4ccccc4n2)C3)cn1 [Example 333, 4-(1-Ethyl-1H-pyrazol-4-yl)-6-(2-quinolin-2-yl-ethyl)-6,7-dihydro-pyrrolo[3,4-b]pyridin-5-one] | 100 to 200 |
| Cc1ccsc1-c1ccnc2c1C(=O)N(CCc1ccc3ccccc3n1)C2 [Example 336, 4-(3-Methyl-thiophen-2-yl)-6-(2-quinolin-2-yl-ethyl)-6,7-dihydro-pyrrolo[3,4-b]pyridin-5-one] | 100 to 200 |
| CN(C)c1ncc(-c2cccc3c2CN(CCc2ccc4ccccc4n2)C3=O)cn1 [Example 341, 4-(2-Dimethylamino-pyrimidin-5-yl)-2-(2-quinolin-2-yl-ethyl)-2,3-dihydro-isoindol-1-one] | 100 to 200 |
| Cc1ncc(-c2cccc3c2CN(CCc2ccc4ccccc4n2)C3=O)s1 [Example 342, 4-(2-Methyl-thiazol-5-yl)-2-(2-quinolin-2-yl-ethyl)-2,3-dihydro-isoindol-1-one] | < 100 |
| COc1cc(-c2cccc3c2CN(CCc2ccc4ccccc4n2)C3=O)ccn1 [Example 344, 4-(2-Methoxy-pyridin-4-yl)-2-(2-quinolin-2-yl-ethyl)-2,3-dihydro-isoindol-1-one] | 100 to 200 |
| O=C1c2cccc(-c3ccsc3)c2CN1CCc1ccc2ccccc2n1 [Example 345, 2-(2-Quinolin-2-yl-ethyl)-4-thiophen-3-yl-2,3-dihydro-isoindol-1-one] | < 100 |
| O=C1c2cccc(-c3ccoc3)c2CN1CCc1ccc2ccccc2n1 [Example 346, 4-Furan-3-yl-2-(2-quinolin-2-yl-ethyl)-2,3-dihydro-isoindol-1-one] | < 100 |
| CCn1cc(-c2cccc3c2CN(CCc2ccc4ccccc4n2)C3=O)cn1 [Example 347, 4-(1-Ethyl-1H-pyrazol-4-yl)-2-(2-quinolin-2-yl-ethyl)-2,3-dihydro-isoindol-1-one] | 100 to 200 |
| Cc1cc(-c2cccc3c2CN(CCc2ccc4ccccc4n2)C3=O)n(C)n1 [Example 348, 4-(2,5-Dimethyl-2H-pyrazol-3-yl)-2-(2-quinolin-2-yl-ethyl)-2,3-dihydro-isoindol-1-one] | 100 to 200 |
| Cc1noc(C)c1-c1cccc2c1CN(CCc1ccc3ccccc3n1)C2=O [Example 349, 4-(3,5-Dimethyl-isoxazol-4-yl)-2-(2-quinolin-2-yl-ethyl)-2,3-dihydro-isoindol-1-one] | 200 to 500 |
| Cc1cnc(-c2cccc3c2CN(CCc2ccc4ccccc4n2)C3=O)cn1 [Example 350, 4-(5-Methyl-pyrazin-2-yl)-2-(2-quinolin-2-yl-ethyl)-2,3-dihydro-isoindol-1-one] | < 100 |
